# Measured values taken from PubChem BioAssay (NCI).
# Several values for one entry are separate records, joined by “and”; a condition that tells them apart may be missing. Equal entries are not always repeated.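 Values below derive from 48-hour exposures of cells grown in 96-well plates, with endpoints linearly interpolated between the two concentrations bracketing the appropriate inhibition level. The concentration for 50% growth inhibition is given as GI50. TGI: total growth inhibition.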
# What was measured:
# Assay in all cases: NCI tumour cell line growth inhibition, 48 h
# A549 NSCLC = test system: A549 NSCLC
# CAKI-1 renal = test system: CAKI-1 renal
# HCC-2998 colon = test system: HCC-2998 colon
# NCI-H226 lung = test system: NCI-H226 lung
# NCI-H23 lung = test system: NCI-H23 lung
# NCI-H460 lung = test system: NCI-H460 lung
# OVCAR-8 ovarian = test system: OVCAR-8 ovarian
# SK-MEL-28 melanoma = test system: SK-MEL-28 melanoma
# SR leukemia = test system: SR leukemia
# UACC-257 melanoma = test system: UACC-257 melanoma
SMILES,TGI (A549 NSCLC),TGI (CAKI-1 renal),TGI (HCC-2998 colon),TGI (NCI-H226 lung),TGI (NCI-H23 lung),TGI (NCI-H460 lung),TGI (OVCAR-8 ovarian),TGI (SK-MEL-28 melanoma),TGI (SR leukemia),TGI (UACC-257 melanoma),GI50 (A549 NSCLC),GI50 (CAKI-1 renal),GI50 (HCC-2998 colon),GI50 (NCI-H226 lung),GI50 (NCI-H23 lung),GI50 (NCI-H460 lung),GI50 (OVCAR-8 ovarian),GI50 (SK-MEL-28 melanoma),GI50 (SR leukemia),GI50 (UACC-257 melanoma)
CC(C)[Si](OCC1CC(C[C@H]2CC(C[C@H]3C[C@@H](CO[Si](C(C)C)(C(C)C)C(C)C)OC(C)(C)O3)OC(C)(C)O2)OC(C)(C)O1)(C(C)C)C(C)C (stereo partly specified),> 100 µM,> 100 µM,> 100 µM,> 100 µM,> 100 µM,> 100 µM,> 100 µM,> 100 µM,> 100 µM,> 100 µM,–,–,–,–,–,–,–,–,–,–
CC1CC(=O)C(CC(=O)O)C1C(C(=O)C(=O)Nc1c(C#N)cccc1[N+](=O)[O-])[N+](=O)[O-] (stereo unspecified),> 100 µM,> 100 µM,> 100 µM,> 100 µM,> 100 µM,> 100 µM,> 100 µM,> 100 µM,> 100 µM,> 100 µM,–,–,–,–,–,–,–,–,–,–
Cn1cnc([N+](=O)[O-])c1SC1=NCCS1,> 100 µM,> 100 µM,> 100 µM,> 100 µM,> 100 µM,> 100 µM,> 100 µM,> 100 µM,> 100 µM,> 100 µM,–,–,–,–,–,–,–,–,–,–
Cc1ccc(NC(=O)C(=O)C2NC(=S)NC2=O)c([N+](=O)[O-])c1 (stereo unspecified),> 100 µM,> 100 µM,> 100 µM,> 100 µM,> 100 µM,> 100 µM,> 100 µM,> 100 µM,> 100 µM,> 100 µM,–,–,–,–,–,–,–,–,–,–
C=C(C)[C@@H]1CC[C@]2(C(=O)O)CC[C@]3(C)[C@H](CC[C@@H]4[C@@]5(C)C[C@@H](CC#Cc6ccc(Br)cc6)C(=O)C(C)(C)[C@@H]5CC[C@]43C)[C@@H]12,> 100 µM,> 100 µM,> 100 µM,> 100 µM,23.9 µM,> 100 µM,> 100 µM,8.25 µM,> 100 µM,> 100 µM,2.8 µM,15.6 µM,36 µM,24.2 µM,3.83 µM,5.71 µM,5.84 µM,2.62 µM,9.33 µM,> 100 µM
CC(C)=CC(O)C/C(C)=C/CC/C(C)=C/CCC1(C)C(CCCO)/C(=C(/C)C=O)CCC1(C)O (stereo unspecified),> 100 µM,> 100 µM,68.2 µM,> 100 µM,93 µM,> 100 µM,> 100 µM,> 100 µM,83.3 µM,> 100 µM,–,–,–,–,–,–,–,–,–,–
N#Cc1c(NC(=O)c2cccc3ccccc23)sc2c1CCCC2,> 25 µM,> 25 µM,> 7.9 µM,> 25 µM,> 25 µM,> 25 µM,> 25 µM,> 25 µM,> 9.97 µM,> 25 µM,0.0788 µM,0.0637 µM,0.0751 µM,0.195 µM,0.0874 µM,0.0785 µM,0.0918 µM,0.0401 µM,0.026 µM,–
O=C(Nc1cccnc1)c1cccc([N+](=O)[O-])c1,> 100 µM,> 100 µM,> 100 µM,> 100 µM,> 100 µM,> 100 µM,> 100 µM,> 100 µM,> 100 µM,> 100 µM,> 100 µM,> 100 µM,> 100 µM,> 100 µM,> 100 µM,> 100 µM,> 100 µM,> 100 µM,> 100 µM,> 100 µM
C/C=C(\CCC1NCCc2c1[nH]c1ccccc21)[Si](C)(C)C (stereo unspecified),24.9 µM and 21 µM,21.4 µM and 11 µM,9.91 µM and 3.3 µM,18.6 µM and 21.6 µM,20.1 µM and 8.2 µM,10.9 µM and 3.78 µM,19.5 µM and 8.79 µM,11.3 µM and 3.36 µM,18.4 µM and 8.42 µM,10.7 µM and 3.71 µM,–,7.02 µM and 2.72 µM,5.5 µM and 1.78 µM,–,7.89 µM and 1.61 µM,5.56 µM and 1.92 µM,–,6.42 µM and 1.83 µM,8.12 µM and 2.7 µM,5.75 µM and 1.7 µM
